The text below walks through data of US20040259096A1, “Receptor capture assay” (priority 2001, published 2004).

In one assay the test system is Ah receptor. Nature of the assay: Biotinylated ARNT assay, neutravidin capture, PCR and gel densitometry. It is filed as biochemical. The following applies: 1 μl of 1 nM beta-naphthoflavone. The protocol:
Activation of the Ah receptor with dose was performed in a microfuge tube containing 50 μl of Ah receptor preparation, 1 μl of 200 μg/ml biotinylated ARNT, and 1 μl of 1 nM beta-naphthoflavone and incubated for 1 hr at 30° C. To minimize non-specific interactions, 1-2 μg of salmon sperm DNA was added to the activated complex, along with NaCl to a final concentration of 60 mM. After 10 min at room temperature, varying amounts of nucleic acid-tracer (50-500 fmole) was added, and the reaction allowed to incubate for an additional 10 min at room temperature. The reaction mix (40 μl) was transferred to a neutravidin-coated plate and incubated for 30 min on a Wallac plate shaker at room temperature. The wells were washed five times with Wash Buffer B, soaking wells for 3 min with wash buffer during each cycle, followed by two washes with ultrapure water.
For PCR analysis, 50 μl of PCR reagent was added and the well contents were subjected to 28 cycles of PCR amplification, using GeneAmp PCR System 2700 (Applied Biosystems, Foster City, Calif.). PCR was performed using 50 μl of PCR Master Mix (Promega, Madison, Wis.) diluted to the appropriate concentration with nuclease-free water and 1 μM of each primer was used per PCR reaction. Following the addition of PCR mix, the microtiter strip was sealed with adhesive and placed in the thermocylcer. Samples were initially heated to 95° C. for 5 min to denature the Ah receptor/ARNT complex and free the nucleic acid for PCR analysis then subjected to 28 cycles of 94° C., 30 sec, 52° C., 30 sec, 72° C., 45 sec, followed by 72° C. for 5 min, then cooling to 4° C.
PCR product, 20 μl, was analyzed by 4% agarose gel electrophoresis, with PCR product visualized under UV light by ethidium bromide staining UV light-illuminated gels were photographed using a Polaroid MP 4 Land Camera and Polaroid Type 55 film. Transmission densitometry with film negatives was performed and areas under the peak calculated using arbitrary units.

For a further assay, the system named is AhR. Nature of the assay: Receptor capture assay, end-point PCR with anti-DIG time-resolved fluorescence detection, Hepa 1c1c7 cell extract. It is filed as biochemical, murine. As to the method:
End-point PCR may also be utilized for dioxins. Calibrators containing 10, 100, 1000 fmol of 2,3,7,8-tetrachlorodibenzo-p-dioxin (TCDD) were prepared and 1 μl of each calibrator was dispensed into a glass test tube.
An extract from Hepa 1c1c7 cells was prepared as described by Example 1 to provide AhR for the assays. 100 μl NEAT to 0.5 μl of Hepa 1c1c7 cell extract diluted in Assay Buffer was added to each tube, thoroughly mixed, and the tubes were capped, or covered with Parafilm™. The samples were then incubated at room temperature to 37° C. for 30 min to 2 hr. Salt and salmon sperm DNA was then added to the AhR reaction medium in concentrations of 50 mM to 200 mM and 5 to 100 μg/ml, respectively. The samples were then incubated for a period ranging from 0-20 minutes at room temperature. Nucleic acid-tracer (1 nM) was added and mixed gently to allow complex formation between activated AhR and nucleic acid-tracer, where TCCD was present. The reaction tubes were incubated for a time ranging from 10 min to 1 hour, at room temperature.
Capture Strips coated with anti-ARNT antibody were prepared as described in Example 1. An aliquot of AhR reaction medium (25 to 100 μl) from each glass tube was then transferred to a corresponding well of the Capture Strip. The Capture Strips were incubated for an additional 30 min to 1 hour at room temperature, with shaking. Unbound nucleic acid-tracer was rigorously removed by washing wells five times with Wash Buffer B, optionally soaking wells for 30 sec-5 min with wash buffer during each cycle. The strips may be shaken during the soak step if desired. The strips were washed twice with water, with all liquids aspirated at the finish.
The nucleic acid-tracer remaining in the Capture Strip was PCR amplified by the following method: A PCR Master Mix was assembled with the following final concentrations: 1×PCR buffer with 1.5 mM MgCl2, 0.2 mM dATP, dCTP, dGTP, 0.15 mM dTTP, 0.05 mM DIG-dUTP (Roche, Indianapolis, Ind.), 0.5 μM each primer (PRI 1A and PRI 1B), […] Taq polymerase. The Master Mix was aliquoted 30-50 μl per well, then tape applied to seal the wells. The thermocycler profile was: 94° C., 20 sec, 15 cycles of [94° C., 30 sec, 52° C., 30 sec, 72° C. 30 sec], then 72° C., 30 sec and chilled to 4° C.
Ten μl of PCR sample was assayed by ELISA-PCR with anti-DIG detection as follows.
The PCR sample was diluted to 30 μl with water in 0.2 ml tube. The sample was heated 95° C. for 3-5 min. The immobilization (capture) probe was:
The probe was diluted to 10 nM in Hybridization Buffer (0.5× Assay Buffer, 0.5 M NaCl). The probe (100 μl=1 pmol) was then added to the hot samples, mixed, and incubated at 37° C. for 45 min.
The sample was transferred to a pre-washed streptavidin-coated microtiter wells in the form of strips or plates obtained from DELFIA catalog number 4009-0010 (Wallac, Finland) and shaken for 45 min. at room temperature. Strips or plates were washed three times with Wallac Wash Buffer (DELFIA wash concentrate, catalog number 13800865, Wallac, Finland). The Wallac Wash Buffer (1×) for the automated plate washer was made from 25× Wash Concentrate (Wallac), which contains Tris, NaCl, and TWEEN-20.
Anti-DIG antibody (Sigma Chemical Co, St. Louis, Mo.) was diluted 1/1000 in Assay Buffer and 100 μl added to each well, and strips were shaken for 30 min. […] Samples were counted on a Victor 2 multilabel counter/plate reader (catalog number 1420-012, Wallac, Finland) using time-resolved fluorescence. […]

`O=c1cc(-c2ccccc2)oc2ccc3ccccc3c12` [BNF, beta-naphthoflavone]: the “area under the peak, PCR product densitometry” value in the assay on Ah receptor (Nucleic Acid-Tracer 63 fmol) is on record as 459 arbitrary units; in the assay on Ah receptor (Nucleic Acid-Tracer 125 fmol), 349 arbitrary units; in the assay on Ah receptor (Nucleic Acid-Tracer 250 fmol) it was 392 arbitrary units; in the assay on Ah receptor (Nucleic Acid-Tracer 500 fmol), 392 arbitrary units. The “DNA signal over DMSO control” value in the assay with AhR (BNF in DMSO added to Hepa 1c1c7 cell extract) was “significantly and reproducibly increased the DNA signal”.

As for `Clc1cc2c(cc1Cl)Oc1cc(Cl)c(Cl)cc1O2` [TCDD, 2,3,7,8-tetrachlorodibenzo-p-dioxin], the “Counts (time-resolved fluorescence)” value in the assay with AhR (TCDD 1 fmol) stood at 5770; with AhR (TCDD 10 fmol) it was 17287; with AhR (TCDD 100 fmol), 100645; with AhR (TCDD 1000 fmol), 504879.
